Data: patent US20250360114A1, “INTRAVENOUS RIFABUTIN FORMULATION AND METHODS OF MAKING” (BIOVERSYS AG, priority 2024, published 2025)

Key:
[1] = Solubility of rifabutin in alkanes; format: physicochemical
[2] = Sub-visible particle test (10 mg/mL in 0.9% saline, particle counter); format: physicochemical
Protocol: As these particle forming impurities are not described in the current pharmacopeial analytical methods, a new testing method was developed which is described in the methods below. In brief, rifabutin powder is dissolved in a mixture of dimethyl isosorbide, acetic acid and water. Subsequently, the obtained solution is diluted in 0.9% saline to a final concentration of 10 mg/mL and sub-visible particles are determined. The established limits for this test are: (1) not more than 12.5 particles/mL greater than 10 μm in diameter, and (2) not more than 3 particles/mL greater than 25 μm in diameter. Considering that current concentrations used for the intravenous administration of rifabutin are well below 10 mg/mL, these limits are much more stringent than the current pharmacopeial limits.
About 400 mg of rifabutin is dissolved in 2 mL of a mixture of isosorbide dimethyl ether (DMI) and acetic acid in water (40% DMI, 2.4% acetic acid). The obtained solution is filtered through a 0.2 μm Nylon filter and […] of 0.9% saline solution to a final concentration of 10 mg/mL. Solutions are stirred for 15 min on a roller mixer to allow sub-visible particle formation.
Sub-visible particles are determined using a suitable instrument (e.g. PAMAS SVSS particle counter). Particle numbers in the 10 mg/mL solution should be not more than 12.5 particles/mL greater 10 μm and not more than […] greater 25 μm to pass the test.

[3] = Method 1, Example 1 (pentane Soxhlet extraction)
[4] = Method 2, Example 2 (pentane / silica gel columns, acetone elution)
[5] = Method 3, Example 3 (dissolved in n-heptane 50° C., filtered)

| SMILES | Solubility [1] | Sub-visible particles ≥10 μm [2, 3] [particles/mL] | Sub-visible particles ≥25 μm [2, 3] [particles/mL] | Sub-visible particles ≥10 μm [2, 4] [particles/mL] | Sub-visible particles ≥25 μm [2, 4] [particles/mL] | Sub-visible particles ≥10 μm [2, 5] [particles/mL] | Sub-visible particles ≥25 μm [2, 5] [particles/mL] |
| --- | --- | --- | --- | --- | --- | --- | --- |
| CO[C@H]1/C=C/O[C@@]2(C)Oc3c(C)c(O)c4c(c3C2=O)C2=NC3(CCN(CC(C)C)CC3)NC2=C(NC(=O)/C(C)=C\C=C\[C@H](C)[C@H](O)[C@@H](C)[C@@H](O)[C@@H](C)[C@H](OC(C)=O)[C@@H]1C)C4=O [Rifabutin] | low solubility |  |  |  |  |  |  |
| CO[C@H]1/C=C/O[C@@]2(C)Oc3c(C)c(O)c4c(c3C2=O)C2=NC3(CCN(CC(C)C)CC3)NC2=C(NC(=O)/C(C)=C\C=C\[C@H](C)[C@H](O)[C@@H](C)[C@@H](O)[C@@H](C)[C@H](OC(C)=O)[C@@H]1C)C4=O [original, rifabutin] |  | 138.3 | 16.3 | 1804.0 | 98.7 | 1804.0 | 98.7 |
| CO[C@H]1/C=C/O[C@@]2(C)Oc3c(C)c(O)c4c(c3C2=O)C2=NC3(CCN(CC(C)C)CC3)NC2=C(NC(=O)/C(C)=C\C=C\[C@H](C)[C@H](O)[C@@H](C)[C@@H](O)[C@@H](C)[C@H](OC(C)=O)[C@@H]1C)C4=O [purified, rifabutin] |  | 8.4 | 0.4 | 2.6 | 0.0 | 7.1 | 0.2 |
